Test system: C. trachomatis serovar LGV-L2
Experiment: Inhibition of infectious Chlamydia progenies (C. trachomatis infectivity, reinfection of HeLa cells, IFU count)
Assay type: cell-based
Details: infected HeLa cells, MOI 0.3, compound added 1 hpi, 44-48 h, relative to DMSO-treated control; for inhibition at 2.5 µM: 2.5 uM compound; for inhibition at 10 µM: 10 uM compound; for inhibition at 50 µM: 50 uM compound
Protocol: Cell Culture, C. trachomatis Infections, and Determination of C. trachomatis Infectivity.
HeLa cells were infected with C. trachomatis serovar LGV-L2 at an MOI of 0.3. At 1 hpi, RPMI media containing the different dilutions of the tested compounds in DMSO were added. The different compounds were dissolved to 20 mM in DMSO and were then diluted with RPMI media to be added at 2.5 to 100 μM. After 44-48 h incubation, the cells were osmotically lysed by the addition of cold sterile distilled water to release infectious EB progeny. 5×SPG was added to equalize the osmotic pressure to a 1×SPG isotonic condition. An equal amount of HBSS (Hanks balanced salt solution) (Gibco/Invitrogen) was added to the lysate (yielding a 1:1 dilution) and 10-fold serial dilutions of the resulting mixture was used to infect fresh HeLa cells. At 1 hpi, the inoculum was replaced with RPMI media and the infection allowed to progress for 44-48 hours before fixation and staining. Fixation was performed by adding methanol for 5 minutes and the cells were subsequently washed with phosphate buffered saline (PBS). The chlamydial inclusions were stained by a primary rabbit anti-Chlamydia antibody (generated in-house) and a secondary donkey anti-rabbit FITC-labelled antibody (Jackson ImmunoResearch). The DNA of the cells and Chlamydia was stained by the addition of DAPI. The stained cells were analyzed by an ArrayScan automated scanner (ArrayScan VTI HCS, Thermo Scientific). Data were presented as the relative numbers of IFUs in treated infections compared to the numbers of IFUs in DMSO-treated control infections.
The compounds of Examples 1-33 were tested for inhibition of infectious Chlamydia progenies at concentrations of 2.5 μM, 10 μM, 50 μM and 100 μM. In this document μM stands for micromolar. The compounds of the present disclosure were considered to have antibacterial activity if they provided 50% or more inhibition of infectious Chlamydia progenies using at least one of the tested concentrations in Table 1.

## COc1c(Cc2cccc3ccccc23)cc(=O)n2c1SC[C@H]2C(=O)Nc1ccccc1 [Example 1, {(3R)-7-Methoxy-6-[(1-naphthyl)methyl]-4-oxo-1-thia-3a-aza-3-indanyl}anilinoformaldehyde]
  inhibition at 2.5 µM: 100%

## COc1c(Cc2cccc3ccccc23)cc(=O)n2c1SC[C@H]2C(=O)Nc1ccc(C)cc1 [Example 2, {(3R)-7-Methoxy-6-[(1-naphthyl)methyl]-4-oxo-1-thia-3a-aza-3-indanyl}(p-toluidino)formaldehyde]
  inhibition at 2.5 µM: 96%
  inhibition at 10 µM: 100%

## COc1c(Cc2cccc(C)c2C)cc(=O)n2c1SC[C@H]2C(=O)Nc1ccccc1 [Example 3, {(3R)-7-Methoxy-4-oxo-6-[(2,3-xylyl)methyl]-1-thia-3a-aza-3-indanyl}anilinoformaldehyde]
  inhibition at 2.5 µM: 95%
  inhibition at 10 µM: 100%

## COc1c(Cc2cccc(C)c2C)cc(=O)n2c1SC[C@H]2C(=O)Nc1cc(C)cc(F)c1 [Example 4, {(3R)-7-Methoxy-4-oxo-6-[(2,3-xylyl)methyl]-1-thia-3a-aza-3-indanyl}(3-fluoro-5-toluidino)formaldehyde]
  inhibition at 2.5 µM: 99%
  inhibition at 10 µM: 100%

## COc1c(Cc2cccc(C)c2C)cc(=O)n2c1SC[C@H]2C(=O)Nc1ccc(C)cc1 [Example 5, {(3R)-7-Methoxy-4-oxo-6-[(2,3-xylyl)methyl]-1-thia-3a-aza-3-indanyl}(p-toluidino)formaldehyde]
  inhibition at 2.5 µM: 100%
  inhibition at 10 µM: 100%

## COc1c(Cc2cccc3ccccc23)c(N)c(=O)n2c1SC[C@H]2C(=O)Nc1ccccc1 [Example 6, {(3R)-5-Amino-7-methoxy-6-[(1-naphthyl)methyl]-4-oxo-1-thia-3a-aza-3-indanyl}anilinoformaldehyde]
  inhibition at 2.5 µM: 63%
  inhibition at 10 µM: 100%

## COc1c(Cc2cccc(C)c2C)c(N)c(=O)n2c1SC[C@H]2C(=O)Nc1ccc(C)cc1 [Example 7, {(3R)-5-Amino-7-methoxy-4-oxo-6-[(2,3-xylyl)methyl]-1-thia-3a-aza-3-indanyl}(p-toluidino)formaldehyde]
  inhibition at 2.5 µM: 90%
  inhibition at 10 µM: 100%

## COc1c(Cc2cccc(C)c2C)c(N)c(=O)n2c1SC[C@H]2C(=O)Nc1cc(C)cc(F)c1 [Example 8, {(3R)-5-Amino-7-methoxy-4-oxo-6-[(2,3-xylyl)methyl]-1-thia-3a-aza-3-indanyl}(3-fluoro-5-toluidino)formaldehyde]
  inhibition at 2.5 µM: 87%
  inhibition at 10 µM: 100%

## COc1c(Cc2cccc3ccccc23)c(N)c(=O)n2c1SC[C@H]2C(=O)Nc1ccc(C)cc1 [Example 9, {(3R)-5-Amino-7-methoxy-6-[(1-naphthyl)methyl]-4-oxo-1-thia-3a-aza-3-indanyl}(p-toluidino)formaldehyde]
  inhibition at 2.5 µM: 89%
  inhibition at 10 µM: 100%

## O=C(Nc1ccccc1)[C@@H]1CSc2c(O)c(Cc3cccc4ccccc34)cc(=O)n21 [Example 10, {(3R)-7-Hydroxy-6-[(1-naphthyl)methyl]-4-oxo-1-thia-3a-aza-3-indanyl}anilinoformaldehyde]
  inhibition at 2.5 µM: 88%
  inhibition at 10 µM: 98%

## O=C(Nc1ccccc1)[C@@H]1CSc2c(Cl)c(Cc3cccc4ccccc34)cc(=O)n21 [Example 11, {(3R)-7-Chloro-6-[(1-naphthyl)methyl]-4-oxo-1-thia-3a-aza-3-indanyl}anilinoformaldehyde]
  inhibition at 2.5 µM: 97%
  inhibition at 10 µM: 100%

## O=C(Nc1ccccc1)[C@@H]1CSc2c(C(F)(F)F)c(Cc3cccc4ccccc34)cc(=O)n21 [Example 12, {(3R)-6-[(1-Naphthyl)methyl]-4-oxo-7-(trifluoromethyl)-1-thia-3a-aza-3-indanyl}anilinoformaldehyde]
  inhibition at 2.5 µM: 98%
  inhibition at 10 µM: 100%

## COc1c(Cc2cccc(C)c2C)c(N)c(=O)n2c1SC[C@H]2C(=O)Nc1ccccc1 [Example 13, {(3R)-5-Amino-7-methoxy-4-oxo-6-[(2,3-xylyl)methyl]-1-thia-3a-aza-3-indanyl}anilinoformaldehyde]
  inhibition at 2.5 µM: 75%
  inhibition at 10 µM: 100%

## COc1c(Cc2cccc(C)c2C)c(N)c(=O)n2c1SC[C@H]2c1nc(-c2ccccc2)no1 [Example 14, (3R)-5-Amino-7-methoxy-3-(3-phenyl-1,2,4-oxadiazol-5-yl)-6-[(2,3-xylyl)methyl]-1-thia-3a-aza-4-indanone]
  inhibition at 2.5 µM: 76%
  inhibition at 10 µM: 100%

## COc1c(Cc2cccc(C)c2C)cc(=O)n2c1SC[C@H]2c1nnc(-c2ccccc2)o1 [Example 15, (3R)-7-Methoxy-3-(5-phenyl-1,3,4-oxadiazol-2-yl)-6-[(2,3-xylyl)methyl]-1-thia-3a-aza-4-indanone]
  inhibition at 2.5 µM: 84%
  inhibition at 10 µM: 100%

## COc1c(Cc2cccc(C)c2C)cc(=O)n2c1SC[C@H]2c1nc(-c2ccccc2)no1 [Example 16, (3R)-7-Methoxy-3-(3-phenyl-1,2,4-oxadiazol-5-yl)-6-[(2,3-xylyl)methyl]-1-thia-3a-aza-4-indanone]
  inhibition at 2.5 µM: 81%
  inhibition at 10 µM: 100%

## COc1c(COc2cccc(C)c2C)cc(=O)n2c1SC[C@H]2C(=O)Nc1ccc(Cl)cn1 [Example 17, {(3R)-7-Methoxy-4-oxo-6-[(2,3-xylyloxy)methyl]-1-thia-3a-aza-3-indanyl}(5-chloro-2-pyridylamino)formaldehyde]
  inhibition at 2.5 µM: 79%
  inhibition at 10 µM: 100%

## Cc1cccc(OCc2cc(=O)n3c(c2C2CC2)SCC3C(=O)Nc2ccccc2)c1C (stereo not drawn) [Example 19, Anilino{7-cyclopropyl-4-oxo-6-[(2,3-xylylyloxy)methyl]-1-thia-3a-aza-3-indanyl}formaldehyde]
  inhibition at 2.5 µM: 100%

## Cc1ccc(NC(=O)[C@@H]2CSc3c(C4CC4)c(Cc4cccc(C)c4C)cc(=O)n32)cc1 [Example 20, {(3R)-7-Cyclopropyl-4-oxo-6-[(2,3-xylyl)methyl]-1-thia-3a-aza-3-indanyl}(p-toluidino)formaldehyde]
  inhibition at 2.5 µM: 99%

## Cc1ccc(NC(=O)[C@@H]2CSc3c(C4CC4)c(Cc4ccc(Cl)cc4)cc(=O)n32)cc1 [Example 21, {(3R)-6-[(p-Chlorophenyl)methyl]-7-cyclopropyl-4-oxo-1-thia-3a-aza-3-indanyl}(p-toluidino)formaldehyde]
  inhibition at 2.5 µM: 99%

## O=c1cc(Cc2cccc3ccccc23)c(C2CC2)c2n1[C@H](c1nc(-c3ccccc3)n[nH]1)CS2 [Example 22, (3R)-7-Cyclopropyl-6-[(1-naphthyl)methyl]-3-(5-phenyl-2H-1,2,4-triazol-3-yl)-1-thia-3a-aza-4-indanone]
  inhibition at 2.5 µM: 98%
  inhibition at 10 µM: 100%

## CC(C)Nc1c(Cc2cccc3ccccc23)cc(=O)n2c1SC[C@H]2C(=O)Nc1ccccc1 [Example 23, Anilino{7-(isopropylamino)-6-[(1-naphthyl)methyl]-4-oxo-1-thia-3a-aza-3-indanyl}formaldehyde]
  inhibition at 10 µM: 98%
  inhibition at 50 µM: 98%

## CN(C)c1c(Cc2cccc3ccccc23)cc(=O)n2c1SC[C@H]2C(=O)Nc1ccccc1 [Example 24, {(3R)-7-(Dimethylamino)-6-[(1-naphthyl)methyl]-4-oxo-1-thia-3a-aza-3-indanyl}anilinoformaldehyde]
  inhibition at 10 µM: 98%
  inhibition at 50 µM: 99%
